This note sets out measurements from patent publication US7820817B2, “Modulators of muscarinic receptors” (Vertex Pharmaceuticals Incorporated, priority 2004, dated 2010).

Molecules are shown by their SMILES.

This experiment has as its system at least one muscarinic receptor, M1, M2, M3, M4. Description: Muscarinic modulation activity (Table 3). The class given is cell-based. Set-up: key: +++: exhibited muscarinic modulation activity for at least one muscarinic receptor, M1, M2, M3, M4, at a concentration of less than 5 μM; ++: exhibited muscarinic modulation activity for at least one muscarinic receptor, M1, M2, M3, M4, at a concentration of between 30 μM and 5 μM; +: exhibited muscarinic modulation activity for at least one muscarinic receptor, M1, M2, M3, M4, at a concentration of greater than 30 μM; −: were not assayed or did not exhibit muscarinic modulation activity for at least one muscarinic receptor, M1, M2, M3, M4, at the concentration at which the assay was performed. The following applies: concentration at which modulation of at least one muscarinic receptor, M1, M2, M3, M4, was exhibited; CHO cells. On the procedure:
CHO cells expressing muscarinic receptors (M1 to M5) are grown as monolayers in tissue culture flasks at 37° C. in a humidified atmosphere containing 5% CO2 and passaged every 3-5 days. The growth media is Dulbecco's modified eagles medium (DMEM, Gibco Cat#12430-054), containing 25 mM Hepes and supplemented with Fetal Bovine Serum (Hyclone, cat#SH30071.03), 0.1 mM of MEM non-essential amino acids (GIBCO, Cat#11140-050), 1 mM MEM Sodium Pyruvate (GIBCO Cat#11360-070) and 100 units/ml of Penicillin G and 100 μg/ml of Streptomycin (GIBCO Cat#15140-122). The recombinant muscarinic receptor cell lines are grown under antibiotic pressure with media containing 25 μg/ml zeocin and 500 μg/ml G418 (M1-CHO), 4 μg/ml puromycin, 50 μg/ml zeocin and 2.5 μg/ml blasticidin (M2 and M4-CHO) or 50 μg/ml zeocin and 4 μg/ml puromycin (M3 and M5-CHO).
Cells are harvested at 80-90% confluence using Versene (GIBCO Cat#15040-066), collected by centrifugation and seeded 18-24 hrs prior to running the calcium assay at a density of 5,000-10,000 cells/well in […], clear-bottomed 384-well plates (BD Biocoat, poly-D-lysine, Cat#356663). The day of the experiment, the cells are washed with a plate washer (Bioteck Instruments, ELX 405) using bath1 buffer (140-mM NaCl, 4.5-mM KCl, 2-mM CaCl2, 1-mM MgCl2, 10-mM Hepes-Na, 10-mM Glucose, pH 7.4, with NaOH) containing 1 mM Probenecid. Next, the calcium dye Fluo-3 (25 μl/well of Fluo-3 AM at 4 μM, Molecular Probes F-1241, in Bath 1 buffer containing 1 mM Probenecid) is added to the 25 μl of Bath 1 remaining in each well after the plate wash and the dye is loaded at 37° C. in the tissue culture incubator for 60-90 min. The fluorescent dye is removed using the plate washer with Bath 1 containing 1 mM Probenecid, leaving 25 μl/well of this solution after the wash. Alternatively, cells can be loaded with the calcium indicator from Molecular Devices (Calcium 3 Assay Reagents, Cat #R7181) adding 5 μl of a 5× solution dye in Bath 1 containing 1 mM Probenecid (10 ml per dye flask cat#R7182 to generate a solution […]) to 20 μl of the same buffer. After loading for 60 min. the experiment can be run without having to remove the dye.
Compounds are prepared at a 2× fold concentration in a 96-well plate (round bottom, Costar Corning cat#3656), by reconstituting the pre-spotted compounds in bath 1 containing 1 mM probenecid. The final concentration DMSO is 0.5%, and the amount of DMSO is normalized across the assay plate. To determine an agonist action of the compounds on muscarinic receptors, the reconstituted compounds are added (25 μl compound/well) to the cell assay plate (containing 25 μl/well) using the multi-channel robotic system of the FLIPR 3 Instrument (Molecular Devices, Sunnyvale, Calif.). To determine a functional inhibitory action of the compounds on muscarinic receptors, the reconstituted compounds are added (25 μl compound/well) to the assay plate and pre-incubated for 15 min prior to adding 25 μl of Carbachol at 3× the EC80 for each muscarinic subtype. Alternatively, the compounds can be co-applied simultaneously with the agonist. In both assay modes, the fluorescence is recorded for 60 sec (excitation wavelength is […] and emission wavelength 540 nm) using the FLIPR 3 instrument.
The potency, efficacy and selectivity of the muscarinic compounds were evaluated by screening the compound activity across the whole family (M1 to M5 cells).
CHO cells expressing muscarinic receptors (M1 to M5) and containing a gene reporter system β-Lactamase) with transcriptional control mediated by calcium release (NFAT activation). See Zlokarnik, G; Negulescu, P. A.; Knapp, T. E.; Mere, L; Burres, N; Feng, L; Whitney, M; Roemer, K; Tsien, R. Y. Quantitation of transcription and clonal selection of single living cells with β-lactamase as reporter. Science, 1998 Jan. 2, 279(5347):84-8. The cells are grown as monolayers in tissue culture flasks at 37° C. in a humidified atmosphere containing 5% CO2 and passaged every 3-5 days. […]

As for `C1=CC2CC1CC2CN1CCN(c2ncccn2)CC1` (stereo not drawn) [Compound 76, 2-[4-(5-bicyclo[2.2.1]hept-2-enylmethyl)piperazin-1-yl]pyrimidine], the “ACTIVITY (muscarinic modulation activity)” value (shortened to “ACTIVITY”) is given as “+++ (exhibited muscarinic modulation activity for at least one muscarinic receptor, M1, M2, M3, M4, at a concentration of less than 5 μM)”.

Turning to `N#Cc1ccc(C(F)(F)F)nc1N1CCN(CC2CC3CCC2C3)CC1` (stereo not drawn) [Compound 8, 2-[4-(norbornan-2-ylmethyl)piperazin-1-yl]-6-(trifluoromethyl)nicotinonitrile], the “ACTIVITY” value is on record as “−”.

As for `CCOC(=O)N1C2CCC1CC(N1CCN(c3nc(C(F)(F)F)ccc3C#N)CC1)C2` (stereo not drawn) [Compound 24, 3-[4-[3-cyano-6-(trifluoromethyl)-2-pyridyl]piperazin-1-yl]-8-azabicyclo[3.2.1]octane-8-carboxylic acid ethyl ester], the “ACTIVITY” value is “+++ (exhibited muscarinic modulation activity for at least one muscarinic receptor, M1, M2, M3, M4, at a concentration of less than 5 μM)”.

In the case of `Cc1nc(N2CCN(CC3CC4CCC3C4)CC2)c(C#N)cc1-c1ccccc1` (stereo not drawn) [Compound 73, 6-methyl-2-[4-(norbornan-2-ylmethyl)piperazin-1-yl]-5-phenyl-nicotinonitrile], the “ACTIVITY” value is reported as “−”.

Turning to `CCOC(=O)N1C2CCC1CC(N1CCN(c3nc(C)cc(C)c3C#N)CC1)C2` (stereo not drawn) [Compound 78, 3-[4-(3-cyano-4,6-dimethyl-2-pyridyl)piperazin-1-yl]-8-azabicyclo[3.2.1]octane-8-carboxylic acid ethyl ester], the “ACTIVITY” value was “++ (exhibited muscarinic modulation activity for at least one muscarinic receptor, M1, M2, M3, M4, at a concentration of between 30 μM and 5 μM)”.

Turning to `C1=CC2CC1CC2CN1CCN(c2cnccn2)CC1` (stereo not drawn) [Compound 39, 2-[4-(5-bicyclo[2.2.1]hept-2-enylmethyl)piperazin-1-yl]pyrazine], the “ACTIVITY” value was “+ (exhibited muscarinic modulation activity for at least one muscarinic receptor, M1, M2, M3, M4, at a concentration of greater than 30 μM)”.

As for `Cc1ccc(C#N)c(N2CCN(C3CC4CCC3C4)CC2)n1` (stereo not drawn) [Compound 31, 6-methyl-2-(4-norbornan-2-ylpiperazin-1-yl)-nicotinonitrile], the “ACTIVITY” value was “++ (exhibited muscarinic modulation activity for at least one muscarinic receptor, M1, M2, M3, M4, at a concentration of between 30 μM and 5 μM)”.

Regarding `CCOC(=O)N1C2CCC1CC(N1CCC(n3nnc4ccccc43)CC1)C2` (stereo not drawn) [Compound 29, 3-[4-(1H-benzotriazol-1-yl)-1-piperidyl]-8-azabicyclo[3.2.1]octane-8-carboxylic acid ethyl ester], the “ACTIVITY” value is on record as “+++ (exhibited muscarinic modulation activity for at least one muscarinic receptor, M1, M2, M3, M4, at a concentration of less than 5 μM)”.

Turning to `CCOC(=O)N1C2CCC1CC(N1CCC(c3nc(OC)cc(OC)n3)CC1)C2` (stereo not drawn) [Compound 57, 3-[4-(4,6-dimethoxypyrimidin-2-yl)-1-piperidyl]-8-azabicyclo[3.2.1]octane-8-carboxylic acid ethyl ester], the “ACTIVITY” value is recorded as “+++ (exhibited muscarinic modulation activity for at least one muscarinic receptor, M1, M2, M3, M4, at a concentration of less than 5 μM)”.

For `NS(=O)(=O)c1cnccc1N1CCN(CC2CC3CCC2C3)CC1` (stereo not drawn) [Compound 55, 4-[4-(norbornan-2-ylmethyl)piperazin-1-yl]pyridine-3-sulfonamide], the “ACTIVITY” value is “++ (exhibited muscarinic modulation activity for at least one muscarinic receptor, M1, M2, M3, M4, at a concentration of between 30 μM and 5 μM)”.

For the compound `FC(F)(F)c1cnc(N2CCN(CC3CC4C=CC3C4)CC2)c(Cl)c1` (stereo not drawn) [Compound 74, 1-(5-bicyclo[2.2.1]hept-2-enylmethyl)-4-[3-chloro-5-(trifluoromethyl)-2-pyridyl]-piperazine], the “ACTIVITY” value is given as “−”.

Regarding `NC(=O)c1cccnc1N1CCN(CC2CC3C=CC2C3)CC1` (stereo not drawn) [Compound 6, 2-[4-(5-bicyclo[2.2.1]hept-2-enylmethyl)piperazin-1-yl]nicotinamide], the “ACTIVITY” value was “−”.

`c1cc(N2CCN(C3CC4CCC(C4)C3)CC2)ccn1` (stereo not drawn) [Compound 35, 1-(3-bicyclo[3.2.1]octyl)-4-(4-pyridyl)piperazine]: the “ACTIVITY” value is “++ (exhibited muscarinic modulation activity for at least one muscarinic receptor, M1, M2, M3, M4, at a concentration of between 30 μM and 5 μM)”.

`Cc1cccc(N2CCN(CC3CC4C=CC3C4)CC2)n1` (stereo not drawn) [Compound 15, 1-(5-bicyclo[2.2.1]hept-2-enylmethyl)-4-(6-methyl-2-pyridyl)-piperazine]: the “ACTIVITY” value is “++ (exhibited muscarinic modulation activity for at least one muscarinic receptor, M1, M2, M3, M4, at a concentration of between 30 μM and 5 μM)”.

Consider `CCOC(=O)N1C2CCC1CC(N1CCN(c3ccc(C#N)cn3)CC1)C2` (stereo not drawn) [Compound 66, 3-[4-(5-cyano-2-pyridyl)piperazin-1-yl]-8-azabicyclo[3.2.1]octane-8-carboxylic acid ethyl ester], for which the “ACTIVITY” value was “+++ (exhibited muscarinic modulation activity for at least one muscarinic receptor, M1, M2, M3, M4, at a concentration of less than 5 μM)”.

Take `Clc1cccc(N2CCN(CC3CC4C=CC3C4)CC2)n1` (stereo not drawn) [Compound 21, 1-(5-bicyclo[2.2.1]hept-2-enylmethyl)-4-(6-chloro-2-pyridyl)-piperazine]: the “ACTIVITY” value is listed as “−”.

Take `N#Cc1cccnc1N1CCN(CC2CCC3CCC2C3)CC1` (stereo not drawn) [Compound 64, 2-[4-(4-bicyclo[3.2.1]octylmethyl)piperazin-1-yl]nicotinonitrile]: the “ACTIVITY” value was “+ (exhibited muscarinic modulation activity for at least one muscarinic receptor, M1, M2, M3, M4, at a concentration of greater than 30 μM)”.

Take `NC(=O)c1cccnc1N1CCN(C2CC3CCC2C3)CC1` (stereo not drawn) [Compound 10, 2-(4-norbornan-2-ylpiperazin-1-yl)nicotinamide]: the “ACTIVITY” value is on record as “−”.

With `CCOC(=O)N1C2CCC1CC(CN1CCN(c3nccnc3C#N)CC1)C2` (stereo not drawn) [Compound 38, 3-[[4-(3-cyanopyrazin-2-yl)piperazin-1-yl]methyl]-8-azabicyclo[3.2.1]octane-8-carboxylic acid ethyl ester], the “ACTIVITY” value is recorded as “+++ (exhibited muscarinic modulation activity for at least one muscarinic receptor, M1, M2, M3, M4, at a concentration of less than 5 μM)”.

On to `Clc1cncc(Cl)c1N1CCN(CC2CC3C=CC2C3)CC1` (stereo not drawn) [Compound 26, 1-(5-bicyclo[2.2.1]hept-2-enylmethyl)-4-(3,5-dichloro-4-pyridyl)-piperazine], for which the “ACTIVITY” value is on record as “−”.

Consider `C1=CC2CC1CC2CN1CCN(c2ccncc2)CC1` (stereo not drawn) [Compound 41, 1-(5-bicyclo[2.2.1]hept-2-enylmethyl)-4-(4-pyridyl)piperazine], for which the “ACTIVITY” value is given as “+++ (exhibited muscarinic modulation activity for at least one muscarinic receptor, M1, M2, M3, M4, at a concentration of less than 5 μM)”.
